In publication PMC8703873, “Structure and Activity of a Selective Antibiofilm Peptide SK-24 Derived from the NMR Structure of Human Cathelicidin LL-37” (Pharmaceuticals, 2021):
Converted amounts (≈) assume the structure as drawn. Non-standard residues stand in square brackets, D forms with d. Residues, ends and D or L forms follow the SMILES beside them. Bip = N[C@@H](Cc1ccc(-c2ccccc2)cc1)C(=O)O

Legend:
[1] = HPLC retention time (measure of peptide hydrophobicity); type: physicochemical; conditions: chromatographic, Waters C8 symmetry hydrophobic column, as described in ref 34; used as indicator of peptide hydrophobicity
Excerpt: In the membrane-bound LL-37 structure determined by 3D NMR spectroscopy, a hydrophobic gap exists (Figure 1A). The location of a hydrophilic S9 on the hydrophobic surface of LL-37 splits the long helix into two hydrophobic domains (gold sticks). The SK-24 peptide we identified here corresponds to the long hydrophobic domain [26]. The amino acid sequence of SK-24, along with LL-37 and its derived antimicrobial peptides, is depicted in Figure 1B. Peptide parameters, including net charge, hydrophobic content, Boman index, GRAVY, hydrophobicity, and hydrophobic moment of each peptide, were calculated using online tools, such as the APD [8] and HeliQuest (Table 1). Except for the shortest RI-10 (net charge +3), LL-37 and its other derived peptides have net charges +5 or +6, above the average net charge (+3.3) of natural antimicrobial peptides registered in the APD [8, 35, 36]. Overall, the hydrophobic percentages (Pho) of these peptides calculated in the APD are proportional to the hydrophobicity and hydrophobic moment calculated by HeliQuest in Table 1. Of note, LL-37 has the highest net charge (+6) and Boman index but the lowest Pho%, GRAVY, and hydrophobic moment.
All peptides were chemically synthesized and purified to >95% (Genemed Synthesis, San Antonio, TX, USA). The quality of each peptide was determined based on mass spectrometry (MS) and high-performance liquid chromatography (HPLC). Peptide stock solutions were freshly made by solubilizing in autoclaved distilled water, and their concentrations were quantitated using UV spectroscopy based on the absorbance difference at 215 and 225 nm as described. Peptide retention time was measured on a Waters C8 symmetry hydrophobic column as described. Other chemicals were purchased from Sigma (St. Louis, MO, USA) unless specified.

E. faecium V284-17 = type: cell-based, Enterococcus faecium; conditions: V284-17
S. aureus USA300 = type: cell-based, Staphylococcus aureus
Experimental: (§1) The antibiotic-resistant pathogens used in this study include the Gram-positive bacteria Enterococcus faecium V286-17 and Staphylococcus aureus USA300 LAC and the Gram-negative bacteria Klebsiella pneumoniae E406-17, Acinetobacter baumannii B28-16, Pseudomonas aeruginosa E411-17, and Escherichia coli E423-17. All bacteria were cultivated in tryptic soy broth (TSB) at 37 °C, 220 rpm.
(§2) The antibacterial activity of peptides was evaluated using a standard broth microdilution protocol with minor modifications. In brief, peptides were made at various concentrations, 10 μL per well in a 96-well polystyrene microplate. Logarithmic phase bacterial cultures (i.e., optical density (OD) at 600 nm ≈ 0.5) were diluted to 0.001 OD, and aliquots of 90 μL were added to each well. Untreated bacterial culture and medium were included as positive and negative controls, respectively. Plates were incubated at 37 °C overnight and read at 630 nm using a ChroMate Microplate Reader (Awareness Technology, Palm City, FL, USA). […] Our previously designed peptide 17BIPHE2 [32] was included as a positive control, and RI-10, a peptide without antibacterial activity in rich media, was utilized as a negative control.

K. pneumoniae E406-17 = type: cell-based, Klebsiella pneumoniae; conditions: E406-17
Experimental: as §1, §2

P. aeruginosa E411-17 = type: cell-based, Pseudomonas aeruginosa; conditions: E411-17
Experimental: as §1, §2

E. coli E423-17 = type: cell-based, Escherichia coli
Experimental: as §1, §2

[2] = tested on: A. baumannii B28-16 preformed biofilms; experiment: Disruption of preformed biofilms (XTT); type: cell-based, Acinetobacter baumannii
Experimental: The antibiofilm activities of peptides against the preformed biofilms of A. baumannii B28-16 and S. aureus USA300 LAC were evaluated as follows. Bacteria in the logarithmic growth phase were adjusted to a cell density of 10^5 colony forming unit (CFU)/mL. Two hundred microliter cells were seeded into each well of the 96-well plates. The plates were incubated at 37 °C to allow for the formation of biofilm for 24, 48, and 72 h, respectively. The planktonic cells were then removed, followed by a wash. The biofilms were then treated with 20 µL of 10× two-fold diluted peptides and 180 µL of fresh TSB media for 24 h at 37 °C. Cultures treated with water without peptide served as the positive control, and media treated with water was used as the negative control. To quantify the antibiofilm activity of the peptides, the XTT [2, 3-bis (2-methyloxy-4-nitro-5-sulfophenyl)-2H-tertazolium-5-carboxanilide] assay staining method was used to quantitate the live cells. Absorbance was read at 450 nm using a ChroMate microliter plate reader. The percentage biofilm growth for the peptide was plotted by assuming 100% biofilm growth in untreated bacterial control wells. Data were represented as mean ± standard deviation (SD). The data are statistically significant at p < 0.05. Plots were generated using GraphPad Prism v7 (GraphPad Software, San Diego, CA, USA).

S. aureus USA300 LAC = experiment: Membrane permeabilization (propidium iodide); type: cell-based, Staphylococcus aureus; conditions: peptide 8 µM; propidium iodide fluorescence, 2 h, PBS, 37 °C
Experimental: (§3) Membrane permeabilization was evaluated as described. In brief, bacteria were inoculated and grown overnight. A second inoculation was made and let bacteria grow to the exponential phase. Bacteria were then spun, washed, and resuspended in the same volume of PBS. A series of peptide solutions (10×) was made via two-fold dilution in a 96-well plate (10 µL each). All wells were aliquoted with 2 µL of propidium iodide (20 µM), followed by adding 88 µL of S. aureus USA300 or A. baumannii B28-16 (OD600 ~0.11 in PBS). The plate was incubated at 37 °C with continuous shaking at 100 rpm in a FLUOstar Omega microplate reader (BMG Labtech Inc., Cary, NC, USA). Fluorescence was recorded every 5 min for 2 h with excitation and emission wavelengths of 485 and 620 nm. The data were analyzed by the vendor’s software using averaged values from duplicated experiments.

A. baumannii B28-16 = experiment: Membrane permeabilization (propidium iodide); type: cell-based, Acinetobacter baumannii; conditions: peptide 16 µM; propidium iodide fluorescence, 2 h, PBS, 37 °C
Experimental: as §3

CC(C)C[C@H](NC(=O)[C@H](CC(N)=O)NC(=O)[C@H](CCCNC(=N)N)NC(=O)[C@@H](CC(C)C)NC(=O)[C@H](Cc1ccc(-c2ccccc2)cc1)NC(=O)[C@H](CC(=O)O)NC(=O)[C@H](CCCCN)NC(=O)[C@@H](CC(C)C)NC(=O)[C@H](CCCNC(=N)N)NC(=O)[C@H](CCC(N)=O)NC(=O)[C@@H](NC(=O)[C@@H](CC(C)C)NC(=O)[C@H](CCCNC(=N)N)NC(=O)[C@H](CCCCN)NC(=O)[C@H](Cc1ccc(-c2ccccc2)cc1)NC(=O)CN)C(C)C)C(=O)N[C@H](C(N)=O)C(C)C [Peptide 17BIPHE2] (H-G[Bip]KR[dL]VQR[dL]KD[Bip][dL]RNLV-NH2; N-terminus assumed)
tHPLC (HPLC retention time) [1]: 10.753 min
MIC (E. faecium V284-17): 2 µM (≈ 4.51 µg/mL)
MIC (S. aureus USA300): 4 µM (≈ 9.02 µg/mL)
MIC (K. pneumoniae E406-17): 4 to 8 µM
MIC (P. aeruginosa E411-17): 8 µM (≈ 18 µg/mL)
MIC (E. coli E423-17): 4 µM (≈ 9.02 µg/mL)
Biofilm disruption ([2]; 72 h preformed biofilms, peptide 64 μM, highest concentration tested): ~ 70%
Disruption of 48 h biofilms ([2]; biofilms established for 48 h, 24 h treatment): dose-dependent biofilm disruption
Reduction of 24 h biofilms ([2]; biofilms established in 24 h, 24 h treatment): dose-dependent manner
Membrane permeation (S. aureus USA300 LAC): more powerful
Membrane permeation (A. baumannii B28-16): superior to SK-24
